Values joined by “and” are separate entries in the source; they are usually repeats but may differ in a detail not shown here. Identical values can stand only once. Like-named read-outs stand apart in the source and are kept apart here.
Assays:
[1] = in situ rat intestinal perfusion of ethiofos: circulating perfusate and portal blood; type: in vivo, rat (male Sprague-Dawley); conditions: for plasma concentration change on addition of Na2 EDTA: 1.0 mM Na2 EDTA vs without; for levels in portal blood samples, change on addition of Na2 EDTA: 1 mM Na2 EDTA vs without, ethiofos / total WR-1065; for level in portal blood: perfusion of [14C]ethiofos in pH-adjusted water, intact ethiofos / total WR-1065
Procedure: Male Sprague-Dawley rats were maintained on a regular diet of rat chow prior to dosing and fasted 16 h before the experiment. Water was available ad libitum.
Rats weighing between 250 g and 325 g were chosen and anesthetized with 50.0 mg/kg sodium pentobarbital ip. The cannulation of the intestine was performed as previously described.
The proximal cannula was inserted through the stomach wall past the pyloric sphincter for experiments which included the bile flow. Experiments which excluded the bile flow were cannulated approximately 3 cm distal to the pyloric spinchter. Five microcuries of (^3 H)PEG 4000 was included in the perfusate to monitor water flux. For some experiments, 1 mCi of (^14 C)ethiofos was added to the reservoir.
Concommitant sampling of blood was accomplished by insertion of a catheter in the portal vein via the ileocecal vein. […] Rectal temperature was monitored in early experiments to assure maintenance of body temperature in this system.
(§1) Ethiofos was separated on a Bioanalytical Systems […] Phase II C18 ODS analytical column with an Uptight guard column packed with Whatman Pellicular C18 37-53 mm material. Amperometric detection was conducted with a Bioanalytical Systems LC 4B amperometric detector with a Hg/Au transducer ell. Detector signal was output to a Waters Associates Model 840 data system.
(§2) A […] portion of blood was immediately treated with […] of chilled (0°-4° C.) 1.0M HC10 containing 1 g/L EDTA. The samples were vortexed and centrifuged at 15,600×g for 45 sec. […] Samples were immediately frozen at -78° C. in a dry ice/2-propanol bath and transferred to a freezer maintained at -78° C.
(§3) The samples were prepared for HPLC analysis by adding 200 ml of buffer (pH 10). Samples were injected onto HPLC Unit A and amperometrically detected with an Hg/Au electrode at +0.25 V. The assay method has been previously described by Swynnerton, McGovern, Nino and Mangold: J. Radiat. Oncol.
(§4) J. Radiat. Oncol. […] Samples were injected on HPLC Unit B and amperometrically detected at +0.15 V.

[2] = intraduodenal administration of ethiofos to Rhesus monkeys, plasma levels; type: in vivo; conditions: Rhesus monkey; for plasma levels on coadministration of ethiofos with EDTA: ethiofos / free and total WR-1065
Procedure: An ethiofos solution was administered via rapid infusion through an infant nasogastric tube instilled in the duodenum of Rhesus monkeys. X-rays were taken to ensure proper location of the tube prior to drug administration. […] Prior to administration of dosing solution, 10 ml of 1 mM EDTA was predosed into the duodenum over 1 hr using a calibrated infusion pump.
as §1, §2, §3, §4

[3] = in vivo; cited from earlier work
[4] = cited from earlier work
dogs = conditions: cited from earlier work
[5] = in vivo; cited from earlier work; remark: listed apart in the source
circulating calcium = conditions: human clinical trials; cited from earlier work
Rhesus monkeys = conditions: cited from earlier work
mice [6] = conditions: intravenous; cited from earlier work
mice [7] = conditions: cited from earlier work
[8] = stomach acid; cited from earlier work

O=C(O)CN(CCN(CC(=O)O)CC(=O)O)CC(=O)O [EDTA, ethylenediaminetetraacetic acid]
protection of ethiofos degradation in the lumen by EDTA ([1]; rat in situ): some protection | rate of absorption of ethiofos with EDTA ([1]; rat in situ): increase the rate of absorption | EDTA concentration at which increased absorption reaches a maximum ([1]; rat intestinal perfusion of ethiofos): approximately 1 mM | EDTA concentration giving highest ethiofos levels in portal blood ([1]; rat, 90 minutes in situ intestinal perfusion): 1.5 mM | absorption of ethiofos with EDTA ([2]; intraduodenal, awake): enhanced the absorption

NCCCNCCS [WR-1065]
toxicity of the free thiol relative to the parent drug ethiofos [3]: much more toxic | plasma concentration change on addition of Na2 EDTA ([1]; rat): significant increase | levels in portal blood samples, change on addition of Na2 EDTA ([1]; rat): significant increases | metabolite formed in the intestinal lumen ([1]; rat, from perfusate mass balance): major metabolite | level in portal blood ([1]; rat, no EDTA): comparatively high levels | halflife compared with ethiofos ([4]; rhesus monkey, in vivo, iv): much long halflife | plasma levels on coadministration of ethiofos with EDTA ([2]; intraduodenal, awake): substantial increase

NCCCNCCSP(=O)(O)O [ethiofos, S-2-(3-aminopropylamino)ethylphosphorothioic acid]
disappearance of parent compound from the perfusate ([1]; rat in situ, [14C]ethiofos in pH-adjusted water, first 30 minutes, no EDTA): fairly rapid rate | radioactivity accounted for by ethiofos and measured metabolite (mass balance of perfusate) ([1]; rat intestinal perfusate, no EDTA): approximately 85% | radioactivity not accounted for by WR-1065 and ethiofos ([1]; rat intestinal perfusate, no EDTA, may be disulfides): 15% | plasma concentration change on addition of Na2 EDTA ([1]; rat): significant increase | levels in portal blood samples, change on addition of Na2 EDTA ([1]; rat): significant increases | labelled ethiofos / radioactivity remaining in the circulating perfusate ([1]; rat, 90 min perfusion, pH-adjusted water, no EDTA): 90.5±1.7% and 90.5±1.74% | radioactivity remaining in the circulating perfusate ([1]; rat, 90 min perfusion, with 1.0 mM Na2 EDTA): 85.8±1.09% | factor of increase of appearance of ethiofos in rat portal blood ([1]; rat, EDTA enhancement, 90 minutes in situ perfusion): 20 | level in portal blood ([1]; rat, no EDTA): transient and low levels | plasma halflife ([4]; iv, rhesus monkeys 150 mg/kg): approximately 18 minutes | ethiofos or its metabolites excreted in the urine within 120 hours ([4]; rhesus monkeys, iv 150 mg/kg, most within 24 hours): 80% | protection against X-rays and gamma radiation (dogs; intravenous): has been shown to protect | protection (oral dosing) (dogs; oral): failed to protect | slowing of stomach motility and gastric emptying [5]: can slow stomach motility and gastric emptying | loss of circulating calcium (circulating calcium): loss of circulating calcium | protection against X-rays and gamma radiation (Rhesus monkeys; Rhesus monkeys, intravenous): has been shown to protect | protection (oral dosing) (Rhesus monkeys; monkeys, oral): failed to protect | protection against X-rays and gamma radiation (mice [6]): has been shown to protect | plasma levels on coadministration of ethiofos with EDTA ([2]; intraduodenal, awake): detectable levels | AUC ([2]; in vivo, intraduodenal 150 mg/kg, in the presence of EDTA (47:1 ethiofos to EDTA), read-out: AUC (plasma concentration-time curve)): 0.55 µM·h | approximate LD50 (mice [7]; intraperitoneal): ~950 mg/kg | approximate LD50 (mice [7]; oral): ~1500 mg/kg | hydrolysis in the acidic environment of the stomach [8]: can be hydrolyzed

Source: patent publication US5167947A, “Enhancement of absorption of radioprotective drugs” (Southwest Research Institute, priority 1989, dated 1992)
